According to EP0547705A1, “Pharmacologically active tricyclic benzotriazepine derivatives” (CONSEJO SUPERIOR DE INVESTIGACIONES CIENTIFICAS, priority 1991, dated 1993):

Legend:
[1] = Antagonism of the effects of tetrabenazine (ptosis, akinesia, hypothermia), antidepressant activity; type: in vivo; conditions: for prevents ptosis: 25 mg/kg p.o., tetrabenazine-induced ptosis; for antagonism to hypothermia produced by tetrabenazine: dose not restated (25 mg/kg p.o. given for ptosis in same sentence)
Experimental: The antidepressant activity of these compounds is measured in terms of their capacity of antagonizing the effects of tetrabenazine (ptosis, akinesia and hypothermia), this action being characteristic of antidepressants such as amitriptiline or thianeptine (New Drugs: Discovery and Development. A.A. Rubin (Ed.), Marcel Dekker, Inc. New York-Basel, 203 (1978.)) For example, 2-[(5,10-dihydro-4,4-dioxo-5-methylthieno[3,4-c][2,1]benzothiazepin-10-yl)oxy]-N-methylethylamine (example 53) and 2-[(4,9-dihydro-2,9-dimethyl-10,10-dioxo-2H-pyrazolo[3,4-c][2,1]-benzothiazepin-4-yl)oxy]-1-ethylpyrrolidine (example 91) prevents ptosis at 25 mg/kg p.o., 100% and 90%, respectively, while the antagonism to hypothermia produced by tetrabenazine when administered is 85 % and 75 %, respectively.

[2] = Acute toxicity LD50 p.o. in mice; conditions: mouse, in vivo, po, read-out: LD₅₀
Experimental: (§1) The compounds of formula I are antidepressant, diuretic, antihypertensive, antihistamic, anticonvulsive, antipyretic, anti-inflammatory and/or analgesic agents. […] Exp. Biol. Med. 95, 729 (1957.)] In connection with its activity, this compound is very safe with a LD₅₀ of 1250 mg/kg p.o. in mice.

[3] = Siegmund test (inhibition of pain); type: in vivo; conditions: 100 mg/kg p.o.
Experimental: as §1

Structure (SMILES) | prevents ptosis [1] [%] | antagonism to hypothermia produced by tetrabenazine [1] [%] | LD50 [2] [mg/kg] | inhibition of pain [3] [%]
CN1c2ccccc2C(OCCN2CCCC2)c2cn(C)nc2S1(=O)=O (stereo not drawn) [example 91] | 90 | 75 | – | –
CNCCOC1c2ccccc2N(C)S(=O)(=O)c2cscc21 (stereo not drawn) [example 53, 2-[(5,10-dihydro-4,4-dioxo-5-methylthieno[3,4-c][2,1]benzothiazepin-10-yl)oxy]-N-methylethylamine] | 100 | 85 | – | –
CN1c2ccccc2C(O)c2sccc2S1(=O)=O (stereo not drawn) [example 1, 5,10-dihydro-4,4-dioxo-10-hydroxy-5-methylthieno[3,2-c][2,1]benzothiazepine] | – | – | 1250 | 92
